Reference: US9012489B2, “Phenyl-3-aza-bicyclo[3.1.0]hex-3-yl-methanones and the use thereof as medicament” (Boehringer Ingelheim International GmbH, priority 2011, dated 2015)

target: T1, GlyT1 transporter (Homo sapiens, UniProt P48067); assay: GlyT1 assay: 3H-glycine uptake into SK-N-MC cells (Cytostar-T format); format: cell-based; conditions: glycine uptake in human SK-N-MC cells endogenously expressing GlyT1; 500 nM glycine, 1% DMSO, signal recorded over 60 min
T1 construct: endogenously expressing the GlyT1 transporter; host or cells: SK-N-MC human neuroblastoma cells
T1 sequence (P48067 1-706): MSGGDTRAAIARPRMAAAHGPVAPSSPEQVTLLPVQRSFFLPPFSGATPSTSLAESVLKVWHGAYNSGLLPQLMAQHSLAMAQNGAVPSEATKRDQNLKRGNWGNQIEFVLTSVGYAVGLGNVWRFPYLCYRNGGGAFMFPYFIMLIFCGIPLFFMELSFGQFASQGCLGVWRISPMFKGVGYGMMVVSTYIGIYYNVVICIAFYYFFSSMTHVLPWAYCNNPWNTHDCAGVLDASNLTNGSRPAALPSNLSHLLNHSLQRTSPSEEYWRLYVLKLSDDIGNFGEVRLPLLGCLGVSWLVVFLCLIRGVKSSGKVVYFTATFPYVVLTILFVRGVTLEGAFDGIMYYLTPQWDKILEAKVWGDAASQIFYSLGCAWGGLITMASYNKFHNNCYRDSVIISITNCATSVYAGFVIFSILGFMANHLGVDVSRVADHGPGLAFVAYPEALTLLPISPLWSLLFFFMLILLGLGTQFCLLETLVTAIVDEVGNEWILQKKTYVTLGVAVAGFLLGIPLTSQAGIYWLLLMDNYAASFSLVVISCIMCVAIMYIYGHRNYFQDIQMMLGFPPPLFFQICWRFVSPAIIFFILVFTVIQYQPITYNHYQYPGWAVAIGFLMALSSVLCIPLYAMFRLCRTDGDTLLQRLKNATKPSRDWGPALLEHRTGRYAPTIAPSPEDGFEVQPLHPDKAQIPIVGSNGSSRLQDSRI
Outline: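 Uptake slopes, measured over 60 min from the linear kinetic range, give IC50 from 8 compound concentrations, with 10 μM RG-1678 setting background. Substrate is 500 nM glycine (250 nM ³H, 250 nM unlabelled) in HBSS/5 mM alanine, 1% DMSO, after roughly 5-10 min compound preincubation. Cells: confluent SK-N-MC endogenously expressing human GlyT1.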

IC50 [nM]	SMILES
18	C[C@H](Oc1ccc(S(C)(=O)=O)cc1C(=O)N1CC2CC2(c2nnc(C3CC3)o2)C1)C(F)(F)F (mixture of isomers) [Example 147, [1-(5-Cyclopropyl-[1,3,4]oxadiazol-2-yl)-3-aza-bicyclo[3.1.0]hex-3-yl]-[5-methanesulfonyl-2-(2,2,2-trifluoro-1-methyl-ethoxy)-phenyl]-methanone]
28	Cc1c(C23CC2CN(C(=O)c2cc(S(C)(=O)=O)ccc2O[C@@H](C)C(F)(F)F)C3)noc1C(F)(F)F (single isomer, unassigned) [Example 164]
5	CCS(=O)(=O)c1ccc(O[C@H](C)C(F)(F)F)c(C(=O)N2CC3CC3(c3cc(C(F)(F)F)on3)C2)c1 (single isomer, unassigned) [Example 107, [5-Ethanesulfonyl-2-(2,2,2-trifluoro-1-methyl-ethoxy)-phenyl]-[1-(5-trifluoromethyl-isoxazol-3-yl)-3-aza-bicyclo[3.1.0]hex-3-yl]-methanone]
120	C[C@H](Oc1ccc(S(C)(=O)=O)cc1C(=O)N1CC2CC2(c2nc(C(F)(F)F)co2)C1)C(F)(F)F (single isomer, unassigned) [Example 136, [5-Methanesulfonyl-2-(2,2,2-trifluoro-1-methyl-ethoxy)-phenyl]-[1-(4-trifluoromethyl-oxazol-2-yl)-3-aza-bicyclo[3.1.0]hex-3-yl]-methanone]
168	C[C@H](Oc1ccc(C#N)cc1C(=O)N1CC2CC2(c2noc(C(F)(F)F)n2)C1)C(F)(F)F (mixture of isomers) [Example 88, 4-(2,2,2-Trifluoro-1-methyl-ethoxy)-3-[1-(5-trifluoromethyl-[1,2,4]oxadiazol-3-yl)-3-aza-bicyclo[3.1.0]hexane-3-carbonyl]-benzonitrile]
6	COC1(c2nc(C34CC3CN(C(=O)c3cc(S(C)(=O)=O)ccc3O[C@H](C)C(F)(F)F)C4)no2)CC1 (single isomer, unassigned) [Example 120, [5-Methanesulfonyl-2-(2,2,2-trifluoro-1-methyl-ethoxy)-phenyl]-{1-[5-(1-methoxy-cyclopropyl)-[1,2,4]oxadiazol-3-yl]-3-aza-bicyclo[3.1.0]hex-3-yl}-methanone]
147	C[C@@H](Oc1ccc(S(C)(=O)=O)cc1C(=O)N1CC2CC2(c2ncc(C(F)(F)F)o2)C1)C(F)(F)F (single isomer, unassigned) [Example 129, [5-Methanesulfonyl-2-(2,2,2-trifluoro-1-methyl-ethoxy)-phenyl]-[1-(5-trifluoromethyl-oxazol-2-yl)-3-aza-bicyclo[3.1.0]hex-3-yl]-methanone]
7	C[C@H](Oc1ccc(S(C)(=O)=O)cc1C(=O)N1CC2CC2(c2cc(C(F)(F)F)on2)C1)C(F)(F)F (single isomer, unassigned) [Example 47, [5-Methanesulfonyl-2-(2,2,2-trifluoro-1-methyl-ethoxy)-phenyl]-[1-(5-trifluoromethyl-isoxazol-3-yl)-3-aza-bicyclo[3.1.0]hex-3-yl]-methanone]
387	Cc1c(C23CC2CN(C(=O)c2cc(S(C)(=O)=O)ccc2O[C@H](C)C(F)(F)F)C3)noc1C(F)(F)F (single isomer, unassigned) [Example 162]
100	C[C@H](Oc1ccc(S(C)(=O)=O)cc1C(=O)N1CC2CC2(c2noc(C3(C(F)(F)F)CC3)n2)C1)C(F)(F)F (single isomer, unassigned) [Example 67, [5-Methanesulfonyl-2-(2,2,2-trifluoro-1-methyl-ethoxy)-phenyl]-{1-[5-(1-trifluoromethyl-cyclopropyl)-[1,2,4]oxadiazol-3-yl]-3-aza-bicyclo[3.1.0]hex-3-yl}-methanone]
190	Cc1coc(C23CC2CN(C(=O)c2cc(S(C)(=O)=O)ccc2O[C@@H](C)C(F)(F)F)C3)n1 (mixture of isomers) [Example 33, [5-Methanesulfonyl-2-(2,2,2-trifluoro-1-methyl-ethoxy)-phenyl]-[1-(4-methyl-oxazol-2-yl)-3-aza-bicyclo[3.1.0]hex-3-yl]-methanone]
292	CCS(=O)(=O)c1ccc(O[C@@H](C)C(F)(F)F)c(C(=O)N2CC3CC3(c3cc(C(F)(F)F)on3)C2)c1 (single isomer, unassigned) [Example 104, [5-Ethanesulfonyl-2-(2,2,2-trifluoro-1-methyl-ethoxy)-phenyl]-[1-(5-trifluoromethyl-isoxazol-3-yl)-3-aza-bicyclo[3.1.0]hex-3-yl]-methanone]
1380	C[C@@H](Oc1ccc(S(C)(=O)=O)cc1C(=O)N1CC2CC2(c2noc(C(F)(F)F)n2)C1)C(F)(F)F (single isomer, unassigned) [Example 5, [5-Methanesulfonyl-2-(2,2,2-trifluoro-1-methyl-ethoxy)-phenyl]-[1-(5-trifluoromethyl-[1,2,4]oxadiazol-3-yl)-3-aza-bicyclo[3.1.0]hex-3-yl]-methanone]
3	C[C@@H](Oc1ccc(S(C)(=O)=O)cc1C(=O)N1CC2CC2(c2ncc(C(F)(F)F)o2)C1)C(F)(F)F (single isomer, unassigned) [Example 130, [5-Methanesulfonyl-2-(2,2,2-trifluoro-1-methyl-ethoxy)-phenyl]-[1-(5-trifluoromethyl-oxazol-2-yl)-3-aza-bicyclo[3.1.0]hex-3-yl]-methanone]
39	C[C@H](Oc1ccc(S(C)(=O)=O)cc1C(=O)N1CC2CC2(c2noc(C(F)(F)F)n2)C1)C(F)(F)F (mixture of isomers) [Example 1, [5-Methanesulfonyl-2-(2,2,2-trifluoro-1-methyl-ethoxy)-phenyl]-[1-(5-trifluoromethyl-[1,2,4]oxadiazol-3-yl)-3-aza-bicyclo[3.1.0]hex-3-yl]-methanone]
10	C[C@H](Oc1ccc(S(C)(=O)=O)cc1C(=O)N1CC2CC2(c2nnc(C3(C(F)(F)F)CC3)o2)C1)C(F)(F)F (single isomer, unassigned) [Example 152, [5-Methanesulfonyl-2-(2,2,2-trifluoro-1-methyl-ethoxy)-phenyl]-{1-[5-(1-trifluoromethyl-cyclopropyl)-[1,3,4]oxadiazol-2-yl]-3-aza-bicyclo[3.1.0]hex-3-yl}-methanone]
7	CCS(=O)(=O)c1ccc(O[C@H](C)C(F)(F)F)c(C(=O)N2CC3CC3(c3cc(C(F)(F)F)on3)C2)c1 (mixture of isomers) [Example 105, [5-Ethanesulfonyl-2-(2,2,2-trifluoro-1-methyl-ethoxy)-phenyl]-[1-(5-trifluoromethyl-isoxazol-3-yl)-3-aza-bicyclo[3.1.0]hex-3-yl]-methanone]
9	CCS(=O)(=O)c1ccc(O[C@@H](C)C(F)(F)F)c(C(=O)N2CC3CC3(c3nccc(C(F)(F)F)n3)C2)c1 (mixture of isomers) [Example 73, [5-Ethanesulfonyl-2-(2,2,2-trifluoro-1-methyl-ethoxy)-phenyl]-[1-(4-trifluoromethyl-pyrimidin-2-yl)-3-aza-bicyclo[3.1.0]hex-3-yl]-methanone]
11	CCS(=O)(=O)c1ccc(O[C@H](C)C(F)(F)F)c(C(=O)N2CC3CC3(c3noc(C(F)(F)F)n3)C2)c1 (single isomer, unassigned) [Example 93, [5-Ethanesulfonyl-2-(2,2,2-trifluoro-1-methyl-ethoxy)-phenyl]-[1-(5-trifluoromethyl-[1,2,4]oxadiazol-3-yl)-3-aza-bicyclo[3.1.0]hex-3-yl]-methanone]
2	C[C@@H](Oc1ccc(S(C)(=O)=O)cc1C(=O)N1CC2CC2(c2noc(C3CC3)n2)C1)C(F)(F)F (single isomer, unassigned) [Example 45, [1-(5-Cyclopropyl-[1,2,4]oxadiazol-3-yl)-3-aza-bicyclo[3.1.0]hex-3-yl]-[5-methanesulfonyl-2-(2,2,2-trifluoro-1-methyl-ethoxy)-phenyl]-methanone]
7	C[C@H](Oc1ccc(S(C)(=O)=O)cc1C(=O)N1CC2CC2(c2nc(C3CC3)no2)C1)C(F)(F)F (single isomer, unassigned) [Example 143, [1-(3-Cyclopropyl-[1,2,4]oxadiazol-5-yl)-3-aza-bicyclo[3.1.0]hex-3-yl]-[5-methanesulfonyl-2-(2,2,2-trifluoro-1-methyl-ethoxy)-phenyl]-methanone]
22	C[C@H](Oc1ccc(S(C)(=O)=O)cc1C(=O)N1CC2CC2(c2cccc(C(F)(F)F)n2)C1)C(F)(F)F (single isomer, unassigned) [Example 55, [5-Methanesulfonyl-2-(2,2,2-trifluoro-1-methyl-ethoxy)-phenyl]-[1-(6-trifluoromethyl-pyridin-2-yl)-3-aza-bicyclo[3.1.0]hex-3-yl]-methanone]
22	Cc1nc(C23CC2CN(C(=O)c2cc(S(C)(=O)=O)ccc2O[C@@H](C)C(F)(F)F)C3)cs1 (mixture of isomers) [Example 25, [5-Methanesulfonyl-2-(2,2,2-trifluoro-1-methyl-ethoxy)-phenyl]-[1-(2-methyl-thiazol-4-yl)-3-aza-bicyclo[3.1.0]hex-3-yl]-methanone]
